Source: US9334280B2, “Synthetic rigidin analogues as anticancer agents, salts, solvates and prodrugs thereof, and method of producing same” (New Mexico Technical Research Foundation, priority 2012, dated 2016)

Assays:
SKMEL-28 melanoma cells = experiment: MTT antiproliferative assay, SKMEL-28; assay type: cell-based, human; details: Homo sapiens, SK-MEL-28; Table 2; 48 h, MTT; read-out: GI50 in vitro values, SKMEL-28
Description: To evaluate antiproliferative properties of the compounds of Formula I, mitochondrial dehydrogenase activities were measured using the MTT assay. The cell lines were prepared by trypsinizing and seeding […] cells per well into microplates. All compounds were reconstituted in dimethyl sulfoxide (DMSO) at a concentration of either 100 mM or 25 mM prior to treatment. The cells were grown for 24 hrs before treatment at concentrations ranging from 0.004 to 100 microM and incubated for 48 hrs in 200 microL media. 20 microL of MTT reagent in serum free medium (5 mg/mL) was added to each well and incubated further for 2 hrs. Media was removed and the resulting formazan crystals were re-solubilized in 100 microL of DMSO and the optical density (OD) was measured using a Thermomax Molecular Device plate reader at a wavelength of 490 nm. The experiments were performed in quadruplicate and repeated at least twice for each compound per cell line. Cells treated with 0.1% DMSO were used as a negative control, while phenyl arsine oxide (PAO) was used as a positive killing control.
Human cancer cell lines were obtained from the American Type Culture Collection (ATCC, Manassas, Va., USA), the European Collection of Cell Culture (ECACC, Salisbury, UK) and the Deutsche Sammlung von Mikroorganismen and Zellkulturen (DSMZ, Braunschweig, Germany). Human cervical adenocarcinoma HeLa cells were cultured in DMEM supplemented with 10% fetal bovine serum (FBS). Human mammary carcinoma MCF-7 cells were cultured in RPMI supplemented with 10% FBS. The U87 and U373 cells were cultured in DMEM culture medium (Lonza code 12-136F, Vervier, Belgium), while the SKMEL-28 and A549 cells were cultured in RPMI culture medium (Lonza; code 12-115F) supplemented with 10% heat-inactivated FBS (Lonza, FBS South America code DE14-801F). […] All cell lines were cultured in T25 flasks, maintained and grown at 37° C., 95% humidity, 5% CO2.
To evaluate antiproliferative properties of the synthesized compounds, the MTT assay was used. The cell lines were assessed by trypsinizing each cell line and seeding 4×10^3 cells per well into 96-well plates. All compounds were dissolved in DMSO at a concentration of either 100 mM or 50 mM prior to cell treatment. The cells were grown for 24 h and then treated with compounds at concentrations ranging from 0.04 to 100 μM and incubated for 48 h in 200 μL media. 20 μL of MTT reagent in serum free medium (5 mg/mL) was added to each well and incubated further for 2 h. Media was removed, and the resulting formazan crystals were re-solubilized in 200 μL of DMSO. A490 was measured using a Thermomax Molecular Device plate reader. The experiments were performed in quadruplicate and repeated at least twice for each compound per cell line. […]

[1] = system: MES-SA uterine sarcoma cells; experiment: MTT antiproliferative assay, MES-SA; assay type: cell-based; details: Homo sapiens, Table 3, parental drug-responsive cell line, read-out: GI50 in vitro Values, MES-SA
Description: Human T-cell leukemia cell line Jurkat (ATCC TIB-152, E6-1 clone) was cultured in RPMI-1640 (Invitrogen) supplemented with 10% FBS (Invitrogen), 100 mg/L penicillin G, 100 mg/L streptomycin, 1.0 mM sodium pyruvate, 1.5 g/L sodium bicarbonate, and 4.5 g/L glucose (all from Sigma). Human cervical cancer cell line HeLa (ATCC S3) was cultured in DMEM (Invitrogen) supplemented with 10% FBS, 100 mg/L penicillin G, and 100 mg/L streptomycin. MCF-7 (human mammary carcinoma) cells were cultured in DMEM supplemented with 1.0 mM sodium pyruvate, 1% GlutaMax™-1 (Invitrogen), 100 μg/mL penicillin, 100 μg/mL streptomycin, and 10% FBS. Human uterine sarcoma MES-SA and MES-SA/Dx5 cells were cultured in RPMI-1640 medium supplemented with 10% FBS, 100 mg/L penicillin G and 100 mg/L streptomycin. All cells were incubated at 37° C. in a humidified atmosphere with 5% CO2. […]
To evaluate antiproliferative properties of the compounds of Formula I, mitochondrial dehydrogenase activities were measured using the MTT assay. […] Media was removed and the resulting formazan crystals were re-solubilized in 100 microL of DMSO and the optical density (OD) was measured using a Thermomax Molecular Device plate reader at a wavelength of 490 nm. […]
The cells of such tumors are referred to as multidrug resistant (MDR). Thus, we assessed the compounds of Formula I for antiproliferative activity in an MDR cancer cell line. […]

HeLa cells = experiment: Flow cytometric cell cycle analysis (Vybrant Orange); assay type: cell-based, human; details: 24 h
Description: To assess the effects of the analogues on the cell cycle, cell cycle analysis was performed. 70-80% confluent HeLa cells were trypsinized and seeded at an initial density of 2×10^5 cell per well into 6 well plates in DMEM supplemented with 10% FBS, 100 mg/L penicillin G and 100 mg/L streptomycin. The cells were allowed to adhere overnight and before treatment with compounds of Formula I at concentrations ranging from 0.1 to 10 microM. After 24 hrs, the cells were washed 3× with DMEM, trypsinized, pelleted, and re-suspended in 200 microL of culture medium containing 10 microM (2 microL/mL) vybrant orange dye. The samples in the labeling solution were transferred into Falcon tubes and incubated in a water bath for 30 mins at 37° C. The samples were then analyzed using a Becton Dickinson FACscan flow cytometer with CellQuest software. A 488 nm laser was utilized using parameters that can be found in Appendix B; 10,000 events were collected for analysis. Cells treated with 0.1% DMSO were used as a negative control and cells treated with colchicine were used as a positive control.
In further anticancer evaluation of compounds of Formula I cell cycle analysis was performed using the cell permeable DNA binding dye Vybrant Orange. In a normal population, cells are distributed among the three major phases of the cell cycle, G0/G1 in which there is one set of paired chromosomes per cell (2n), followed by the S or synthesis phase in which DNA is synthesized in preparation for division (there is a variable amount of DNA present during this phase) and finally G2/M phase in which the chromosomes of each cell have now been duplicated (4n). This DNA content can be measured using fluorescent DNA selective probes such as Vybrant Orange that produce signals that are proportional to DNA mass per cell. This dye interacts with double stranded DNA (dsDNA) in living cells and becomes fluorescent upon binding and thus can be used to track DNA content as cells progress through the various phases of the cell cycle using flow cytometry. Cell cycle analysis was performed on HeLa cells using Rig8 at various concentrations above and below the respective GI50. Since colchicine is a known antimitotic drug, it was utilized as a positive control, while HeLa cells treated with 0.1% DMSO were used as a negative control. FIG. 6 illustrates the results of this analysis using Rig 8 on HeLa cells.

O=C(c1ccccc1)c1[nH]c2[nH]cnc(=O)c2c1-c1cc(Br)cc(Br)c1 [Rig8, 6-Benzoyl-5-(3,5-dibromophenyl)-1H-pyrrolo[2,3-d]pyrimidin-4(7H)-one]
GI50 (SKMEL-28 melanoma cells): 20 nM
GI50 [1]: 81 ± 6 nM
% Relative DNA Content, G0/G1 (HeLa cells; 0.1 μM): 51.5 ± 4.3%
% Relative DNA Content, G2/M (HeLa cells; 0.1 μM): 36.6 ± 4.6%
% Relative DNA Content, S (HeLa cells; 0.1 μM): 14.1 ± 3.9%
% Relative DNA Content, G0/G1 (HeLa cells; 1 μM): 12.7 ± 2.2%
% Relative DNA Content, G2/M (HeLa cells; 1 μM): 73.4 ± 5.3%
% Relative DNA Content, S (HeLa cells; 1 μM): 9.7 ± 2.4%
% Relative DNA Content, G0/G1 (HeLa cells; 10 μM): 5.6 ± 2.2%
% Relative DNA Content, G2/M (HeLa cells; 10 μM): 85.9 ± 2.1%
% Relative DNA Content, S (HeLa cells; 10 μM): 5.3 ± 2.4%
cell cycle arrest (in words) (HeLa cells; 0.1-10 μM): dose-dependent cell cycle arrest in the G2/M phase
